Patent US8747810B2, “Compositions and methods for imaging tissues, organs and tumors” (President and Fellows of Harvard College, priority 2009, dated 2014)
Several values for one entry are separate records, joined by “and”; a condition that tells them apart may be missing. Equal values may be shown once.

Tested on: B16 melanoma nodules
Assay: In vivo biodistribution and tumor uptake of 99mTc complexes in C57B16 mice with B16 melanoma nodules
Conditions: for mel/blood: melanoma/blood ratio; for mel/liver: melanoma/liver ratio; for mel/lung: melanoma/lung ratio; for mel/spleen: melanoma/spleen ratio
Method: The biodistribution data including melanoma/nontumor (M/NT) ratios for selected organs, summarized in Table 1 as percentage injected dose per gram (% ID/g)
To study the tumor uptake of radiolabeled metal complexes, in vivo, biodistribution experiments at 1 h after their administration were carried out in C57B16 male mice with palpable B16 melanoma nodules.

SMILES: CCN(CC)CC[N+]12CC[S][99Tc-]13(=[O])[S]CC(=O)[N]3CC2 (stereo not shown) [^99mTc-27, Iso-[^99mTcOAADT]-(CH2)2-NEt2)]
- Eyes (1 h postinjection): 15.42 ± 2.07 % ID/g
- blood (1 h postinjection): 1.05 ± 0.19 % ID/g
- brain (1 h postinjection): 0.24 ± 0.04 % ID/g
- heart (1 h postinjection): 1.34 ± 0.18 % ID/g
- kidney (1 h postinjection): 5.33 ± 1.10 % ID/g
- liver (1 h postinjection): 12.62 ± 1.80 % ID/g
- lung (1 h postinjection): 6.75 ± 0.57 % ID/g
- melanoma (tumor uptake) (1 h postinjection): 9.61 % ID/g and 9.61 ± 1.02 % ID/g
- muscle (1 h postinjection): 0.94 ± 0.14 % ID/g
- spleen (1 h postinjection): 3.00 ± 1.45 % ID/g
- melanoma (tumor uptake) (1 h postinjection, listed as Iso-[^99mTcOAADT]-(CH2)2-NEt2)): 9.61 % ID/g
- mel/blood (1 h postinjection): 14.71 and 14.71 ± 2.40
- mel/liver (1 h postinjection): 0.75 and 0.75 ± 0.11
- mel/lung (1 h postinjection): 1.43 and 1.43 ± 0.15
- mel/spleen (1 h postinjection): 3.65 and 3.65 ± 1.19
- in vivo tumor uptake (3 h after administration): 8.19 %ID/g
- in vivo tumor uptake (6 h after administration): 7.37 %ID/g
- Eyes (6 h postinjection): 11.09 ± 0.84 % ID/g
- blood (6 h postinjection): 0.25 ± 0.02 % ID/g
- brain (6 h postinjection): 0.05 ± 0.01 % ID/g
- heart (6 h postinjection): 0.18 ± 0.02 % ID/g
- kidney (6 h postinjection): 1.11 ± 0.13 % ID/g
- liver (6 h postinjection): 3.69 ± 0.48 % ID/g
- lung (6 h postinjection): 1.39 ± 0.41 % ID/g
- melanoma (tumor uptake) (6 h postinjection): 7.05 % ID/g and 7.05 ± 1.23 % ID/g
- muscle (6 h postinjection): 0.07 ± 0.01 % ID/g
- spleen (6 h postinjection): 0.78 ± 0.85 % ID/g
- mel/blood (6 h postinjection): 47.25 and 47.25 ± 7.32
- mel/liver (6 h postinjection): 2.00 and 2.00 ± 0.23
- mel/lung (6 h postinjection): 5.87 and 5.87 ± 1.79
- mel/spleen (6 h postinjection): 13.99 and 13.99 ± 5.17
